# Data reported in ChEMBL document CHEMBL1201861, “Genomics of Drug Sensitity in Cancer screening data, Wellcome Trust Sanger Institute”.
# Legend:
# [1] = system: NCI-H187; assay: cells; format: functional, cell-based, Homo sapiens; details: Homo sapiens, NCI-H187;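 note: growth inhibition of NCI-H187 cells, read out as cell viability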
# Description: SANGER: Inhibition of human NCI-H187 cell growth in a cell viability assay.
# [2] = system: CAKI-1; assay: cells; format: functional, cell-based; details: Homo sapiens;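 note: growth inhibition of CAKI-1 cells, measured by a cell viability assay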
# Description: SANGER: Inhibition of human CAKI-1 cell growth in a cell viability assay.
# [3] = system: HCC1599; assay: cells; format: functional, cell-based, Homo sapiens; details: Homo sapiens, HCC1599;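 note: growth inhibition of HCC1599 cells, read out in a cell viability assay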
# Description: SANGER: Inhibition of human HCC1599 cell growth in a cell viability assay.
# [4] = system: EGI-1; assay: cells; format: functional, cell-based; details: Homo sapiens;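 note: cell viability readout used to gauge growth inhibition of EGI-1 cells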
# Description: SANGER: Inhibition of human EGI-1 cell growth in a cell viability assay.
# [5] = system: COLO-679; assay: cells; format: functional, cell-based; details: Homo sapiens
# Description: SANGER: Inhibition of human COLO-679 cell growth in a cell viability assay.
# [6] = system: MEL-HO; assay: cells; format: functional, cell-based; details: Homo sapiens
# Description: SANGER: Inhibition of human MEL-HO cell growth in a cell viability assay.
# [7] = system: KYSE-270; assay: cells; format: functional, cell-based; details: Homo sapiens;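 note: cell growth inhibition measured with a viability assay in the human KYSE-270 line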
# Description: SANGER: Inhibition of human KYSE-270 cell growth in a cell viability assay.
# [8] = system: HuP-T3; assay: cells; format: functional, cell-based; details: Homo sapiens;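 note: HuP-T3 cell growth inhibition, read out with a cell viability assay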
# Description: SANGER: Inhibition of human HuP-T3 cell growth in a cell viability assay.
# [9] = system: NCI-H2170; assay: cells; format: functional, cell-based; details: Homo sapiens;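 note: cell viability assay measuring growth inhibition of human NCI-H2170 cancer cells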
# Description: SANGER: Inhibition of human NCI-H2170 cell growth in a cell viability assay.
# [10] = system: MFH-ino; assay: cells; format: functional, cell-based, Homo sapiens; details: Homo sapiens, MFH-ino;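 note: growth inhibition of human MFH-ino cells, read out by a cell viability assay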
# Description: SANGER: Inhibition of human MFH-ino cell growth in a cell viability assay.
# [11] = system: MFE-280; assay: cells; format: functional, cell-based; details: Homo sapiens;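 note: growth inhibition of MFE-280 cells, determined with a cell viability readout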
# Description: SANGER: Inhibition of human MFE-280 cell growth in a cell viability assay.
# [12] = system: MHH-ES-1; assay: cells; format: functional, cell-based; details: Homo sapiens
# Description: SANGER: Inhibition of human MHH-ES-1 cell growth in a cell viability assay.
# [13] = system: P12-Ichikawa; assay: cells; format: functional, cell-based; details: Homo sapiens
# [14] = system: SAS; assay: cells; format: functional, cell-based; details: Homo sapiens;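 note: growth inhibition of SAS cells, read out with a cell viability assay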
# Description: SANGER: Inhibition of human SAS cell growth in a cell viability assay.
# [15] = system: NCI-H1963; assay: cells; format: functional, cell-based, Homo sapiens; details: Homo sapiens, NCI-H1963;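 note: cell growth inhibition of the human line, determined with a cell viability assay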
# Description: SANGER: Inhibition of human NCI-H1963 cell growth in a cell viability assay.
# [16] = system: NCI-H810; assay: cells; format: functional, cell-based; details: Homo sapiens;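 note: IC50 reflects inhibition of cancer cell line growth, read out with a cell viability assay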
# Description: SANGER: Inhibition of human NCI-H810 cell growth in a cell viability assay.
# [17] = system: OVCAR-5; assay: cells; format: functional, cell-based; details: Homo sapiens;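 note: growth inhibition of human OVCAR-5 cells, read out with a cell viability assay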
# Description: SANGER: Inhibition of human OVCAR-5 cell growth in a cell viability assay.
# [18] = system: HCC1937; assay: cells; format: functional, cell-based; details: Homo sapiens;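 note: growth inhibition measured with a cell viability read-out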
# Description: SANGER: Inhibition of human HCC1937 cell growth in a cell viability assay.
# [19] = system: NCI-H2122; assay: cells; format: functional, cell-based; details: Homo sapiens;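 note: growth inhibition of the cells, read out with a cell viability assay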
# Description: SANGER: Inhibition of human NCI-H2122 cell growth in a cell viability assay.
# [20] = system: SW1088; assay: cells; format: functional, cell-based; details: Homo sapiens;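 note: growth inhibition of human SW1088 cells, read out by a cell viability assay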
# Description: SANGER: Inhibition of human SW1088 cell growth in a cell viability assay.
# [21] = system: HCC1395; assay: cells; format: functional, cell-based; details: Homo sapiens;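 note: growth inhibition of HCC1395 cells, read out by a cell viability assay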
# Description: SANGER: Inhibition of human HCC1395 cell growth in a cell viability assay.
# [22] = system: IMR-5; assay: cells; format: functional, cell-based, Homo sapiens; details: Homo sapiens, IMR-5; read-out: IC50;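 note: growth inhibition of human IMR-5 cells, read out with a cell viability assay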
# Description: SANGER: Inhibition of human IMR-5 cell growth in a cell viability assay.
# [23] = system: U-251; assay: cells; format: functional, cell-based; details: Homo sapiens;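 note: growth inhibition of human U-251 cells, read out through a cell viability assay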
# Description: SANGER: Inhibition of human U251 cell growth in a cell viability assay.
# [24] = system: SW1783; assay: cells; format: functional, cell-based; details: Homo sapiens
# Description: SANGER: Inhibition of human SW1783 cell growth in a cell viability assay.
# [25] = system: SK-MM-2; assay: cells; format: functional, cell-based, Homo sapiens; details: Homo sapiens, SK-MM-2;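 note: growth inhibition of human SK-MM-2 cells, read out with a cell viability assay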
# Description: SANGER: Inhibition of human SK-MM-2 cell growth in a cell viability assay.
# [26] = system: MDA-MB-175-VII; assay: cells; format: functional, cell-based; details: Homo sapiens
# [27] = system: OVCAR-3; assay: cells; format: functional, cell-based; details: Homo sapiens;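 note: growth inhibition of human OVCAR-3 cells, determined by a cell viability assay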
# Description: SANGER: Inhibition of human OVCAR-3 cell growth in a cell viability assay.
# [28] = system: CP50-MEL-B; assay: cells; format: functional, cell-based; details: Homo sapiens;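 note: growth inhibition of the human cell line, measured with a cell viability read-out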
# Description: SANGER: Inhibition of human CP50-MEL-B cell growth in a cell viability assay.
# [29] = system: MCF7; assay: cells; format: functional, cell-based; details: Homo sapiens;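 note: growth inhibition of human MCF7 cells, read out with a cell viability assay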
# Description: SANGER: Inhibition of human MCF7 cell growth in a cell viability assay.
# [30] = system: NCI-H1792; assay: cells; format: functional, cell-based; details: Homo sapiens;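 note: growth inhibition of human NCI-H1792 cells, read out as cell viability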
# Description: SANGER: Inhibition of human NCI-H1792 cell growth in a cell viability assay.
# [31] = system: A-427; assay: cells; format: functional, cell-based; details: Homo sapiens;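 note: growth inhibition of human A-427 cells, read out by a cell viability assay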
# Description: SANGER: Inhibition of human A427 cell growth in a cell viability assay.
# [32] = system: LU-165; assay: cells; format: functional, cell-based, Homo sapiens; details: Homo sapiens, LU-165
# Description: SANGER: Inhibition of human LU-165 cell growth in a cell viability assay.
# [33] = system: ESS-1; assay: cells; format: functional, cell-based; details: Homo sapiens;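 note: growth inhibition of human ESS-1 cells, read out by a cell viability assay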
# Description: SANGER: Inhibition of human ESS-1 cell growth in a cell viability assay.
# [34] = system: SW1573; assay: cells; format: functional, cell-based; details: Homo sapiens;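 note: growth inhibition of SW1573 cells, read out with a cell viability assay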
# Description: SANGER: Inhibition of human SW1573 cell growth in a cell viability assay.
# [35] = system: DK-MG; assay: cells; format: functional, cell-based; details: Homo sapiens;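 note: growth inhibition of DK-MG cells, read out with a cell viability assay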
# Description: SANGER: Inhibition of human DK-MG cell growth in a cell viability assay.
# [36] = system: T84; assay: cells; format: functional, cell-based; details: Homo sapiens;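 note: growth inhibition measured with a cell viability readout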
# Description: SANGER: Inhibition of human T84 cell growth in a cell viability assay.
# [37] = system: NCI-H292; assay: cells; format: functional, cell-based; details: Homo sapiens;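 note: growth inhibition of NCI-H292 cells, read out with a cell viability assay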
# Description: SANGER: Inhibition of human NCI-H292 cell growth in a cell viability assay.
# [38] = system: SCC-4; assay: cells; format: functional, cell-based; details: Homo sapiens;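 note: growth inhibition of human SCC-4 cells, read out as cell viability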
# Description: SANGER: Inhibition of human SCC-4 cell growth in a cell viability assay.
# [39] = system: PA-1; assay: cells; format: functional, cell-based; details: Homo sapiens;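 note: IC50 for suppression of PA-1 cell proliferation, determined with a cell viability read-out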
# Description: SANGER: Inhibition of human PA-1 cell growth in a cell viability assay.
# [40] = system: 639-V; assay: cells; format: functional, cell-based; details: Homo sapiens;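 note: growth inhibition of 639-V cells, read out with a cell viability assay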
# Description: SANGER: Inhibition of human 639-V cell growth in a cell viability assay.
# [41] = system: M14; assay: cells; format: functional, cell-based; details: Homo sapiens;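 note: growth inhibition of M14 cells, read out with a cell viability assay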
# Description: SANGER: Inhibition of human M14 cell growth in a cell viability assay.
# [42] = system: HSC-2; assay: cells; format: functional, cell-based; details: Homo sapiens;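 note: growth inhibition of human HSC-2 cells, read out by a cell viability assay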
# Description: SANGER: Inhibition of human HSC-2 cell growth in a cell viability assay.
# [43] = system: CAL-62; assay: cells; format: functional, cell-based; details: Homo sapiens;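 note: growth inhibition of CAL-62 cells, read out with a cell viability assay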
# Description: SANGER: Inhibition of human CAL-62 cell growth in a cell viability assay.
# [44] = system: NCI-H1436; assay: cells; format: functional, cell-based, Homo sapiens; details: Homo sapiens, NCI-H1436;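 note: growth suppression of human NCI-H1436 cells, determined with a cell viability readout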
# Description: SANGER: Inhibition of human NCI-H1436 cell growth in a cell viability assay.
# [45] = system: PANC-08-13; assay: cells; format: functional, cell-based; details: Homo sapiens
# Description: SANGER: Inhibition of human PANC-08-13 cell growth in a cell viability assay.
# [46] = system: LK-2; assay: cells; format: functional, cell-based; details: Homo sapiens;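 note: growth inhibition of LK-2 cells, read out with a viability assay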
# Description: SANGER: Inhibition of human LK-2 cell growth in a cell viability assay.
# [47] = system: SW48; assay: cells; format: functional, cell-based; details: Homo sapiens;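 note: growth inhibition of SW48 cells, read out with a cell viability assay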
# Description: SANGER: Inhibition of human SW48 cell growth in a cell viability assay.
# [48] = system: NCI-H522; assay: cells; format: functional, cell-based; details: Homo sapiens;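 note: cell viability assay measuring growth inhibition of human NCI-H522 cells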
# Description: SANGER: Inhibition of human NCI-H522 cell growth in a cell viability assay.
# [49] = system: KYSE-450; assay: cells; format: functional, cell-based; details: Homo sapiens;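 note: cell growth inhibition measured by a viability assay in human KYSE-450 cells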
# Description: SANGER: Inhibition of human KYSE-450 cell growth in a cell viability assay.
# [50] = system: LB647-SCLC; assay: cells; format: functional, cell-based, Homo sapiens; details: Homo sapiens, LB647-SCLC;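 note: cell growth inhibition, read out by a viability assay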
# Description: SANGER: Inhibition of human LB647-SCLC cell growth in a cell viability assay.
# [51] = system: IM-9; assay: SANGER: Inhibition of human IM-9 cell growth in a cell viability assay.; format: functional, cell-based; details: Homo sapiens, IM-9
# [52] = system: VMRC-RCZ; assay: cells; format: functional, cell-based; details: Homo sapiens
# Description: SANGER: Inhibition of human VMRC-RCZ cell growth in a cell viability assay.
# [53] = system: KU-19-19; assay: cells; format: functional, cell-based; details: Homo sapiens
# Description: SANGER: Inhibition of human KU-19-19 cell growth in a cell viability assay.
# [54] = system: 8305C; assay: cells; format: functional, cell-based; details: Homo sapiens
# Description: SANGER: Inhibition of human 8305C cell growth in a cell viability assay.
# [55] = system: NCI-H2342; assay: cells; format: functional, cell-based; details: Homo sapiens;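 note: growth inhibition of the cancer cell line, determined with a cell viability assay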
# Description: SANGER: Inhibition of human NCI-H2342 cell growth in a cell viability assay.
# [56] = system: SW780; assay: cells; format: functional, cell-based; details: Homo sapiens;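 note: growth inhibition of the cells, read out with a cell viability assay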
# Description: SANGER: Inhibition of human SW780 cell growth in a cell viability assay.
# [57] = system: RCM-1; assay: cells; format: functional, cell-based; details: Homo sapiens;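 note: growth inhibition of the RCM-1 line, determined with a cell viability readout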
# Description: SANGER: Inhibition of human RCM-1 cell growth in a cell viability assay.
# [58] = system: CAL-148; assay: cells; format: functional, cell-based, Homo sapiens; details: Homo sapiens, CAL-148
# Description: SANGER: Inhibition of human CAL-148 cell growth in a cell viability assay.
# [59] = system: RL; assay: cells; format: functional, cell-based, Homo sapiens; details: Homo sapiens, RL
# Description: SANGER: Inhibition of human RL cell growth in a cell viability assay.
smiles,measurement,setting,value
COc1ccc(-c2cc3nccn3c(Nc3ncccc3C(N)=O)n2)cc1OC,IC50,[1],> 8 µM
same,IC50,[2],6.1 µM
same,IC50,[3],2690 nM
same,IC50,[4],> 8 µM
same,IC50,[5],> 8000 nM
same,IC50,[6],2.95 µM
same,IC50,[7],1450 nM
same,IC50,[8],> 8 µM
same,IC50,[9],5.35 µM
same,IC50,[10],> 8000 nM
same,IC50,[11],> 8 µM
same,IC50,[12],> 8 µM
same,IC50,[13],4.37 µM
same,IC50,[14],> 8 µM
same,IC50,[15],> 8 µM
same,IC50,[16],4.44 µM
same,IC50,[17],7.41 µM
same,IC50,[18],> 8 µM
same,IC50,[19],1280 nM
same,IC50,[20],> 8 µM
same,IC50,[21],> 8 µM
same,IC50,[22],6.08 µM
same,IC50,[23],> 8 µM
same,IC50,[24],> 8 µM
same,IC50,[25],> 8 µM
same,IC50,[26],> 8 µM
same,IC50,[27],> 8 µM
same,IC50,[28],> 8 µM
same,IC50,[29],1150 nM
same,IC50,[30],> 8 µM
same,IC50,[31],4.6 µM
same,IC50,[32],7.97 µM
same,IC50,[33],4.08 µM
same,IC50,[34],> 8 µM
same,IC50,[35],> 8 µM
same,IC50,[36],3.23 µM
same,IC50,[37],> 8 µM
same,IC50,[38],> 8 µM
same,IC50,[39],1010 nM
same,IC50,[40],1430 nM
same,IC50,[41],> 8 µM
same,IC50,[42],4.53 µM
same,IC50,[43],> 8 µM
same,IC50,[44],> 8 µM
same,IC50,[45],> 8 µM
same,IC50,[46],> 8 µM
same,IC50,[47],7.73 µM
same,IC50,[48],> 8 µM
same,IC50,[49],2.32 µM
same,IC50,[50],> 8 µM
same,IC50,[51],> 8 µM
same,IC50,[52],5.58 µM
same,IC50,[53],> 8 µM
same,IC50,[54],2420 nM
same,IC50,[55],1820 nM
same,IC50,[56],> 8 µM
same,IC50,[57],> 8 µM
same,IC50,[58],> 8 µM
same,IC50,[59],> 8 µM
OC[C@H](Cc1ccccc1)Nc1nc(Oc2ccc3c(c2)CCC3)nc2c1ncn2Cc1ccc(-c2ccccc2)cc1,IC50,[1],> 10.2 µM
same,IC50,[2],> 10.2 µM
same,IC50,[3],> 10200 nM
same,IC50,[4],> 10.2 µM
same,IC50,[5],2660 nM
same,IC50,[6],8.39 µM
same,IC50,[7],1760 nM
same,IC50,[8],> 10.2 µM
same,IC50,[9],> 10.2 µM
same,IC50,[10],2410 nM
same,IC50,[11],> 10.2 µM
same,IC50,[12],> 10.2 µM
same,IC50,[13],7.93 µM
same,IC50,[14],4.8 µM
same,IC50,[15],> 10.2 µM
same,IC50,[16],3.89 µM
same,IC50,[17],> 10.2 µM
same,IC50,[18],> 10.2 µM
same,IC50,[19],2720 nM
same,IC50,[20],> 10.2 µM
same,IC50,[21],> 10.2 µM
same,IC50,[22],3.1 µM
same,IC50,[23],> 10.2 µM
same,IC50,[24],> 10.2 µM
same,IC50,[25],> 10.2 µM
same,IC50,[26],> 10.2 µM
same,IC50,[27],> 10.2 µM
same,IC50,[28],> 10.2 µM
same,IC50,[29],2260 nM
same,IC50,[30],> 10.2 µM
same,IC50,[31],> 10.2 µM
same,IC50,[32],> 10.2 µM
same,IC50,[33],> 10.2 µM
same,IC50,[34],> 10.2 µM
same,IC50,[35],> 10.2 µM
same,IC50,[36],> 10.2 µM
same,IC50,[37],> 10.2 µM
same,IC50,[38],> 10.2 µM
same,IC50,[39],> 10200 nM
same,IC50,[40],1150 nM
same,IC50,[41],> 10.2 µM
same,IC50,[42],> 10.2 µM
same,IC50,[43],9.44 µM
same,IC50,[44],> 10.2 µM
same,IC50,[45],> 10.2 µM
same,IC50,[46],> 10.2 µM
same,IC50,[47],> 10.2 µM
same,IC50,[48],> 10.2 µM
same,IC50,[49],8.47 µM
same,IC50,[50],5.49 µM
same,IC50,[51],> 10.2 µM
same,IC50,[52],> 10.2 µM
same,IC50,[53],> 10.2 µM
same,IC50,[54],2760 nM
same,IC50,[55],3720 nM
same,IC50,[56],> 10.2 µM
same,IC50,[57],> 10.2 µM
same,IC50,[58],> 10.2 µM
same,IC50,[59],> 10.2 µM
